From ChEMBL document CHEMBL1151353, “Normaytansine, a new antileukemic ansa macrolide from Maytenus buchananii” (1980)
Values after ≈ are worked out from the molar mass of the structure shown.

Experiments:
KB = test: Cytotoxicity against human KB cells; type: functional; details: read-out: ED50 (the source's name)
P388 = test: In vivo antitumor activity against mouse P388 cells in mouse at 100 mg/kg relative to control; type: functional

`COc1cc2cc(c1Cl)NC(=O)C[C@H](OC(=O)[C@H](C)N(C)C(C)=O)[C@]1(C)O[C@H]1[C@H](C)[C@@H]1C[C@@](O)(NC(=O)O1)[C@H](OC)/C=C/C=C(\C)C2` [NORMAYTANSINE] showed an EC50 (KB) of 1 ng/mL (≈ 1.47 nM) and a T/C (P388) of 181%.
